Data reported in patent EP4527946A1, “METHOD FOR PREDICTING THE RESPONSE TO A DUAL S[…] KINASE TTK INHIBITOR THERAPY” (Pangaea Oncology, S.A, priority 2023, dated 2025).

Columns and labels:
PC9-ER and PC-GR4 clones = assay: Flow cytometry (cell cycle, annexin V/PI) in clones; type: cell-based; conditions: 50 nM
Description: (§1) For cell cycle analyses, cells were plated in T-25 flasks, allowed to attach, treated with drugs in RPMI 1640 + 10% FBS, trypsinised and centrifuged. Cell pellets were resuspended in PBS, fixed in 70% ethanol and incubated o/n at -20 °C. Fixed cells were subsequently re-centrifuged at 400 xg for 5 min at 4 °C; resuspended in 250 µL of PBS with 50 µg/mL RNAse A (Sigma Aldrich, Saint Louis, MO), incubated for 1 h at 37 °C and stained with propidium iodide (PI) (Roche Diagnostics, Basel, Switzerland) for 30 min at room temperature.
(§2) For cell death analyses, the Annexin-V-FLUOS (An) staining kit (Roche Diagnostics) was employed, according to the manufacturer's instructions. Stained cells were sorted with a FACSCanto II cytometer (BD Biosciences, Franklin Lakes, NJ) using the FACSDiva software version 6.1.2. The combination of Annexin V and PI was used to differentiate four cell populations; viable cells (An -/PI-), early apoptotic (An+/PI-), necrotic (An-/PI+) and later apoptotic/necrotic (An+/PI+).

PC9-ER = assay: cells; conditions: Homo sapiens, PC-9/ER, read-out: IC50s
Description: (§3) Each concentration of drug was tested in sextuplicates. […] Data were derived from at least two independent experiments. […]

[1] = tested on: EGFR TKI-resistant clones derived from the PC9 cell line and from 11-18 cells; assay: Dose-response (cell viability) in EGFR TKI-resistant clones; type: cell-based; conditions: Homo sapiens
Excerpt: All parental cell lines used in the study were purchased from the ATCC or other cell banks, with the exception of PC9 and 11-18. Parental PC9 cells were provided by F. Hoffman-La Roche Ltd (Basel, Switzerland) with the authorization of Dr. Mayumi Ono (Kyushu University, Fukuoka, Japan); while parental 11-18 cells were kindly provided by Dr. Mayumi Ono. Resistant cells were derived by exposing parental cells to EGFR TKIs, as described in [Bertran-Alamillo et al., (2019) AURKB as a target in non-small cell lung cancer with acquired resistance to anti-EGFR therapy. Nat Commun 10, 1812, and Jacobsen K, et al., (2017) Convergent Akt activation drives acquired EGFR inhibitor resistance in lung cancer. […] All tumor cells were grown in a humidified atmosphere with 5% CO2 at 37°C in RPMI 1640 + 10% fetal bovine serum (FBS), 50 µg/mL penicillin-streptomycin and 2 mM L-Glutamine. Cell lines were routinely tested for mycoplasma contamination and authenticated by analyzing >20 polymorphisms using a 30-gene panel NGS.
as §3

WM793 = assay: Cell viability (MTT) assay; type: cell-based; conditions: Homo sapiens, WM793, origin Melan., Td 48 h, drug for 2-3 doubling times
Description: as §3

EBC-1 = assay: Cell viability (MTT) assay; type: cell-based; conditions: Homo sapiens, EBC-1, origin LS, Td 42 h, drug for 2-3 doubling times
Description: as §3

DU-145 = assay: Cell viability (MTT) assay; type: cell-based; conditions: Homo sapiens, DU-145, origin Pr, Td 30 h, drug for 2-3 doubling times
Description: as §3

A549 = assay: Cell viability (MTT) assay; type: cell-based; conditions: Homo sapiens, A549, origin LA, Td 22 h, drug for 2-3 doubling times
Description: as §3

FADU = assay: Cell viability (MTT) assay; type: cell-based; conditions: Homo sapiens, origin HNSCC, Td 30 h, drug for 2-3 doubling times
Description: as §3

MDA-MB-231 = assay: Cell viability (MTT) assay; type: cell-based; conditions: Homo sapiens, MDA-MB-231, origin Breast, Td 25 h, drug for 2-3 doubling times
Description: as §3

T98G = assay: Cell viability (MTT) assay; type: cell-based; conditions: Homo sapiens, origin GB, Td 22 h, drug for 2-3 doubling times
Description: as §3

NCI-H23 = assay: Cell viability (MTT) assay; type: cell-based; conditions: Homo sapiens, NCI-H23, origin LA, Td 38 h, drug for 2-3 doubling times
Description: as §3

SNU-C1 = assay: Cell viability (MTT) assay; type: cell-based; conditions: Homo sapiens, SNU-C1, origin Colon, Td 31 h, drug for 2-3 doubling times
Description: as §3

RT-112 = assay: Cell viability (MTT) assay; type: cell-based; conditions: Homo sapiens, RT-112, origin UB, Td 24 h, drug for 2-3 doubling times
Description: as §3

NCI-H1975 = assay: Cell viability (MTT) assay; type: cell-based; conditions: Homo sapiens, NCI-H1975, origin LA, Td 39 h, drug for 2-3 doubling times
Description: as §3

NCI-H1819 = assay: Cell viability (MTT) assay; type: cell-based; conditions: NCI-H1819, origin LA, Td 51 h, drug for 2-3 doubling times
Description: as §3

MIA-PaCa-2 = assay: Cell viability (MTT) assay; type: cell-based; conditions: Homo sapiens, MIA-PaCa-2, origin Pancreas, Td 26 h, drug for 2-3 doubling times
Description: as §3

SK-MES-1 = assay: Cell viability (MTT) assay; type: cell-based; conditions: Homo sapiens, SK-MES-1, origin LS, Td 50 h, drug for 2-3 doubling times
Description: as §3

HCC366 = assay: Cell viability (MTT) assay; type: cell-based; conditions: HCC366, origin LA, Td 65 h, drug for 2-3 doubling times
Description: as §3

MDA-MB-468 = assay: Cell viability (MTT) assay; type: cell-based; conditions: Homo sapiens, MDA-MB-468, origin Breast, Td 35 h, drug for 2-3 doubling times
Description: as §3

LC-2/ad = assay: Cell viability (MTT) assay; type: cell-based; conditions: Homo sapiens, origin LA, Td 58 h, drug for 2-3 doubling times
Description: as §3

NCI-H2228 = assay: Cell viability (MTT) assay; type: cell-based; conditions: Homo sapiens, NCI-H2228, origin LA, Td 96 h, drug for 2-3 doubling times
Description: as §3

HCC78 = assay: Cell viability (MTT) assay; type: cell-based; conditions: Homo sapiens, HCC78, origin LA, Td 38 h, drug for 2-3 doubling times
Description: as §3

SK-OV-3 = assay: Cell viability (MTT) assay; type: cell-based; conditions: Homo sapiens, SK-OV-3, origin Ovarian, Td 48 h, drug for 2-3 doubling times
Description: as §3

NCI-H3122 = assay: Cell viability (MTT) assay; type: cell-based; conditions: Homo sapiens, NCI-H3122, origin LA, Td 49 h, drug for 2-3 doubling times
Description: as §3

NCl-H1819 cells = assay: Flow cytometry (cell cycle, Annexin V); type: cell-based; conditions: TTKi sensitive NCl-H1819 cells
Description: as §1, §2

For `COc1ccc(Oc2cc(NCCC(F)(F)F)c3ncc(-c4ccc(C(=O)NC5CC5)c(C)c4)n3n2)c(F)c1F` [BAY1217389], the “effect after G2/M arrest (flow cytometry)” value (PC9-ER and PC-GR4 clones; resistant clones) was “extensive polyploidy”, the “effect after G2/M arrest (flow cytometry)” value (PC9-ER and PC-GR4 clones; sensitive clones) was “cell death” and the IC50 (PC9-ER) was over 10000 nM. For the same compound, the IC50 ([1]; PC-9, six clones sensitive to the TTKi) was under 1 nM, the IC50 ([1]; PC-9, twelve TTKi resistant clones) was over 200 nM and the IC50 (WM793) was over 1000 nM. It also gave an IC50 (EBC-1) of 4.6 ± 0.6 nM, an IC50 (DU-145) of over 1000 nM and an IC50 (A549) of over 1000 nM. It also gave an IC50 (FADU) of over 1000 nM, an IC50 (MDA-MB-231) of over 1000 nM and an IC50 (T98G) of over 1000 nM. For the same compound, the IC50 (NCI-H23) was over 1000 nM, the IC50 (SNU-C1) was over 1000 nM and the IC50 (RT-112) was 3.8 ± 0.3 nM. For the same compound, the IC50 (NCI-H1975) was over 1000 nM, the IC50 (NCI-H1819) was 2.6 ± 0.3 nM and the IC50 (MIA-PaCa-2) was over 1000 nM. It also gave an IC50 (SK-MES-1) of over 1000 nM, an IC50 (HCC366) of over 1000 nM and an IC50 (MDA-MB-468) of 4.1 ± 0.3 nM. For the same compound, the IC50 (LC-2/ad) was 3.6 ± 0.3 nM, the IC50 (NCI-H2228) was over 1000 nM and the IC50 (HCC78) was over 1000 nM. For the same compound, the IC50 (SK-OV-3) was over 1000 nM, the IC50 (NCI-H3122) was 7.2 ± 0.5 nM and the “cell death (Annexin V)” value (NCl-H1819 cells) was “extensive induction of cell death”. For the same compound, the “cell cycle effect (flow cytometry)” value (NCl-H1819 cells; 50 nM) was “G2/M arrest”.
